From patent US9353107B2 (Aurigene Discovery Technologies Limited, priority 2012, dated 2016)
Where a name gives a salt, the structure may show the parent alone.

Biological target: T1, recombinant human ALK enzyme (ALK WT) (Homo sapiens, UniProt Q9UM73)
T1 construct: purchased Carna Biosciences 08-518
Assay: ALK WT cell free enzymatic assay (TR-FRET)
Type: biochemical
Details: 1 μM ATP; for IC50: 10 point dose response; for inhibition at 0.1 µM: compound at 100 nM; for inhibition at 0.1 µM / inhibition at 1 µM: 30 min pre-incubation; for inhibition at 1 µM: compound at 1 μM
Experimental: ALK Wild Type (WT) The ALK WT cell free assay was set up to evaluate the effects of these compounds as inhibitors of ALK enzyme. The enzymatic assay was standardized using recombinant human ALK enzyme (Cat#08-518) from Carna Biosciences using Ultra Light Poly GT (Cat# TRF 0100D) from Perkin Elmer as a substrate. TR-FRET (Time resolved fluorescence resonance energy transfer) detection technology was used for the read out. The final assay conditions were 50 mM HEPES pH 7.1, 10 mM MgCl2, 2 mM MnCl2, 0.01% BSA, 2.5 mM DTT, 0.1 mM Na3 VO4, 40 nM Ultra Light Poly GT, 2.5 ng ALK WT enzyme, 1 μM ATP and 125 nM Lance Eu-W1024 labeled anti phospho tyrosine antibody (Cat# AD0203, Perkin Elmer) in 384 well format. The assay reaction time with the substrate was 30 minutes after which the antibody detection mix is added. The TR-FRET signal (Excitation at 340 nm, Emission at 615 nm and 665 nm) was read with 50 μs delay time on Victor^3 V fluorimeter. The data is calculated using the ratio of reading at 665 nM to 615 nM. The final concentration of DMSO was 1% in the assay. Compounds were screened at 100 nM and 1 μM concentrations with pre-incubation of the enzymes with compound for 30 minutes. Each individual IC50 was determined using 10 point dose response curve generated by GraphPad Prism software Version 4 (San Diego, Calif., USA) using non linear regression curve fit for sigmoidal dose response (variable slope). Percentage inhibition at concentrations of 100 nM and 1.0 μM are given in table along with the IC50 (nM) details for selected examples.

T1 sequence (Q9UM73 1058-1620 limits assumed): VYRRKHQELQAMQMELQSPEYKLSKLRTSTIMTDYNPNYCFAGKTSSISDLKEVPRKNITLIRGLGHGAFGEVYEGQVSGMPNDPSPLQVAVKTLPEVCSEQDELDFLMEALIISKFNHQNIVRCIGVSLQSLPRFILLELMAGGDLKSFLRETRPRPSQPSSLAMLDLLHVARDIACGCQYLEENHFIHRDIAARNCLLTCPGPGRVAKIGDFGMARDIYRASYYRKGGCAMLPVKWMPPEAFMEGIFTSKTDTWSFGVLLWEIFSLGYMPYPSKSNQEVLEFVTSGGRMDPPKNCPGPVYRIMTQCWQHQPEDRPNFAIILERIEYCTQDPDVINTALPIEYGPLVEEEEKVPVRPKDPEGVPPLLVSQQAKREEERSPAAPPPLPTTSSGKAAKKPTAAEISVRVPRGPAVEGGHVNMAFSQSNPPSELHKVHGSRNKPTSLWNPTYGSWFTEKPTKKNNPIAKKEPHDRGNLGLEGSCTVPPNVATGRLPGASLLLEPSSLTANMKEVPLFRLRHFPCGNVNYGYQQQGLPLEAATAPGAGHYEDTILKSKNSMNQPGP

Row | Structure (SMILES) | IC50 [nM] | inhibition at 0.1 µM [%] | inhibition at 1 µM [%]
1 | COc1ccc(-c2cc3c(-c4c(C)nn(Cc5cc(F)cc(F)c5)c4C)c[nH]c3nc2C2CC2)cc1NS(C)(=O)=O [Example 27, N-(5-(6-cyclopropyl-3-(1-(3,5-difluorobenzyl)-3,5-dimethyl-1H-pyrazol-4-yl)-1H-pyrrolo[2,3-b]pyridin-5-yl)-2-methoxyphenyl)methanesulfonamide] |  | 9 | 8
2 | COc1ccc(-c2cc3c(-c4c(C)nn(Cc5cccc(F)c5)c4C)c[nH]c3nc2C2CC2)cc1NS(C)(=O)=O [Example 28, N-(5-(6-cyclopropyl-3-(1-(3-fluorobenzyl)-3,5-dimethyl-1H-pyrazol-4-yl)-1H-pyrrolo[2,3-b]pyridin-5-yl)-2-methoxyphenyl)methanesulfonamide] |  | 14 | 49
3 | CC(C)N1CCN(c2cccc(-c3cnc4[nH]cc(-c5cnn(Cc6cccc(F)c6)c5)c4c3)c2)CC1 [Example 35, 3-(1-(3-fluorobenzyl)-1H-pyrazol-4-yl)-5-(3-(4-isopropylpiperazin-1-yl)phenyl)-1H-pyrrolo[2,3-b]pyridine] | < 50 | 98 | 99
4 | Cc1nn(Cc2cccc(F)c2)cc1-c1c[nH]c2ncc(-c3cccc(N4CCNCC4)c3)cc12 [Example 37, 3-(1-(3-fluorobenzyl)-3-methyl-1H-pyrazol-4-yl)-5-(3-(piperazin-1-yl)phenyl)-1H-pyrrolo[2,3-b]pyridine] | < 50 | 93 | 98
5 | Cc1nn(Cc2cccc(F)c2)c(C)c1-c1c[nH]c2ncc(-c3cccc(N4CCNCC4)c3)cc12 [Example 38, 3-(1-(3-fluorobenzyl)-3,5-dimethyl-1H-pyrazol-4-yl)-5-(3-(piperazin-1-yl)phenyl)-1H-pyrrolo[2,3-b]pyridine] | < 50 | 87 | 99
6 | Cc1nn(Cc2cccc(F)c2)c(C)c1-c1c[nH]c2ncc(-c3ccc(N4CCN(CCO)CC4)cc3)cc12 [Example 41, 2-(4-(4-(3-(1-(3-fluorobenzyl)-3,5-dimethyl-1H-pyrazol-4-yl)-1H-pyrrolo[2,3-b]pyridin-5-yl)phenyl)piperazin-1-yl)ethanol] | < 50 | 90 | 100
7 | Cc1nn(Cc2cc(F)ccc2F)c(C)c1-c1c[nH]c2ncc(-c3ccc(N4CCNCC4)cc3)cc12 [Example 42, 3-(1-(2,5-difluorobenzyl)-3,5-dimethyl-1H-pyrazol-4-yl)-5-(4-(piperazin-1-yl)phenyl)-1H-pyrrolo[2,3-b]pyridine hydrochloride] | < 50 | 92 | 100
8 | Cc1nn(Cc2cc(F)cc(F)c2)c(C)c1-c1c[nH]c2ncc(-c3ccc(N4CCNCC4)cc3)cc12 [Example 43, 3-(1-(3,5-difluorobenzyl)-3,5-dimethyl-1H-pyrazol-4-yl)-5-(4-(piperazin-1-yl)phenyl)-1H-pyrrolo[2,3-b]pyridine hydrochloride] | < 50 | 92 | 99
9 | Cc1nn(Cc2cccc(Cl)c2)c(C)c1-c1c[nH]c2ncc(-c3ccc(N4CCNCC4)cc3)cc12 [Example 47, 3-(1-(3-chlorobenzyl)-3,5-dimethyl-1H-pyrazol-4-yl)-5-(4-(piperazin-1-yl)phenyl)-1H-pyrrolo[2,3-b]pyridine hydrochloride] | < 50 | 90 | 100
10 | Cc1nn(Cc2cccc(C#N)c2)c(C)c1-c1c[nH]c2ncc(-c3ccc(N4CCNCC4)cc3)cc12 [Example 48, 3-((3,5-dimethyl-4-(5-(4-(piperazin-1-yl)phenyl)-1H-pyrrolo[2,3-b]pyridin-3-yl)-1H-pyrazol-1-yl)methyl)benzonitrile hydrochloride] | 50 to 250 | 52 | 83

Other lines, results leading:

Row | IC50 [nM] | inhibition at 0.1 µM [%] | inhibition at 1 µM [%] | Structure (SMILES)
11 | < 50 | 96 | 100 | Cc1nn(Cc2cccc(F)c2)c(C)c1-c1c[nH]c2ncc(-c3ccc(OCCCN(C)C)c(NS(C)(=O)=O)c3)cc12 [Example 26, N-(2-(3-(dimethylamino)propoxy)-5-(3-(1-(3-fluorobenzyl)-3,5-dimethyl-1H-pyrazol-4-yl)-1H-pyrrolo[2,3-b]pyridin-5-yl)phenyl)methanesulfonamide]
12 |  | 28 | 48 | COc1ccc(-c2cnc3[nH]cc(-c4c(C)nn(Cc5cccc(F)c5)c4C)c3c2)c(OC)c1NS(C)(=O)=O [Example 29, N-(3-(3-(1-(3-fluorobenzyl)-3,5-dimethyl-1H-pyrazol-4-yl)-1H-pyrrolo[2,3-b]pyridin-5-yl)-2,6-dimethoxyphenyl)methanesulfonamide]
13 |  | 21 | 21 | COc1ccc(-c2cnc3[nH]c(C4CC4)c(-c4c(C)nn(Cc5cccc(F)c5)c4C)c3c2)cc1NS(C)(=O)=O [Example 30, N-(5-(2-cyclopropyl-3-(1-(3-fluorobenzyl)-3,5-dimethyl-1H-pyrazol-4-yl)-1H-pyrrolo[2,3-b]pyridin-5-yl)-2-methoxyphenyl)methanesulfonamide]
14 | > 250 |  | 55 | CC(C)(C)OC(=O)N1CCN(c2cccc(-c3cnc4[nH]cc(-c5cnn(Cc6cc(F)ccc6F)c5)c4c3)c2)CC1 [Example 31, tert-butyl 4-(3-(3-(1-(2,5-difluorobenzyl)-1 h-pyrazol-4-yl)-1 h-pyrrolo[2,3-b]pyridin-5-yl)phenyl)piperazine-1-carboxylate]
15 | < 50 |  | 99 | Fc1ccc(F)c(Cn2cc(-c3c[nH]c4ncc(-c5cccc(N6CCNCC6)c5)cc34)cn2)c1 [Example 32, 3-(1-(2,5-difluorobenzyl)-1H-pyrazol-4-yl)-5-(3-(piperazin-1-yl)phenyl)-1H-pyrrolo[2,3-b]pyridine]
16 | < 50 | 97 | 100 | Fc1cccc(Cn2cc(-c3c[nH]c4ncc(-c5cccc(N6CCNCC6)c5)cc34)cn2)c1 [Example 33, 3-(1-(3-fluorobenzyl)-1H-pyrazol-4-yl)-5-(3-(piperazin-1-yl)phenyl)-1H-pyrrolo[2,3-b]pyridine hydrochloride]
17 | < 50 | 91 | 99 | N#CCCN1CCN(c2cccc(-c3cnc4[nH]cc(-c5cnn(Cc6cccc(F)c6)c5)c4c3)c2)CC1 [Example 34, 3-(4-(3-(3-(1-(3-fluorobenzyl)-1H-pyrazol-4-yl)-1H-pyrrolo[2,3-b]pyridin-5-yl)phenyl)piperazin-1-yl) propanenitrile]
18 | < 50 | 96 | 99 | CN1CCN(c2cccc(-c3cnc4[nH]cc(-c5cnn(Cc6cccc(F)c6)c5)c4c3)c2)CC1 [Example 36, 3-(1-(3-fluorobenzyl)-1H-pyrazol-4-yl)-5-(3-(4-methylpiperazin-1-yl)phenyl)-1H-pyrrolo[2,3-b]pyridine]
19 | < 50 | 92 | 99 | Fc1cccc(Cn2cc(-c3c[nH]c4ncc(-c5ccc(N6CCNCC6)cc5)cc34)cn2)c1 [Example 39, 3-(1-(3-fluorobenzyl)-1H-pyrazol-4-yl)-5-(4-(piperazin-1-yl)phenyl)-1H-pyrrolo[2,3-b]pyridine hydrochloride]
20 | < 50 | 94 | 100 | Cc1nn(Cc2cccc(F)c2)c(C)c1-c1c[nH]c2ncc(-c3ccc(N4CCNCC4)cc3)cc12 [Example 40, 3-(1-(3-fluorobenzyl)-3,5-dimethyl-1H-pyrazol-4-yl)-5-(4-(piperazin-1-yl)phenyl)-1H-pyrrolo[2,3-b]pyridine hydrochloride]
21 | < 50 | 95 | 100 | Cc1c(-c2c[nH]c3ncc(-c4ccc(N5CCNCC5)cc4)cc23)cnn1Cc1cccc(F)c1 [Example 44, 3-(1-(3-fluorobenzyl)-5-methyl-1H-pyrazol-4-yl)-5-(4-(piperazin-1-yl)phenyl)-1H-pyrrolo[2,3-b]pyridine hydrochloride]
22 | 50 to 250 | 51 | 80 | Cc1nn(Cc2cccc(F)c2)c(C)c1-c1c[nH]c2ncc(-c3ccc(N4CCOCC4)cc3)cc12 [Example 45, 4-(4-(3-(1-(3-fluorobenzyl)-3,5-dimethyl-1H-pyrazol-4-yl)-1H-pyrrolo[2,3-b]pyridin-5-yl)phenyl) morpholine]
23 | < 50 | 80 | 98 | COc1cccc(Cn2nc(C)c(-c3c[nH]c4ncc(-c5ccc(N6CCNCC6)cc5)cc34)c2C)c1 [Example 46, 3-(1-(3-methoxybenzyl)-3,5-dimethyl-1H-pyrazol-4-yl)-5-(4-(piperazin-1-yl)phenyl)-1H-pyrrolo[2,3-b]pyridine hydrochloride]
